The source of these data is patent US20180055856A1, “COMBINATION OF LOW DOSE 2-METHYLENE-19-NOR-(20S)-1ALPHA, 25-DIHYDROXYVITAMIN D3 AND CALCIMIMETICS TO TREAT SECONDARY HYPERPARATHYROIDISM” (Wisconsin Alumni Research Foundation, priority 2016, published 2018).

In one data set the test system is vitamin D-deficient rats. The data set can be described thus: Serum calcium in vitamin D-deficient hyperparathyroid rats, dosing thrice weekly for nearly four weeks. Type of data set: in vivo, Sprague-Dawley rats. The method, then: Oral Formulations. Cinacalcet was weighed and mixed with ethanol (at least 21 mcL ethanol/mg cinacalcet) for approximately 10 minutes. After a clear solution was produced, the clear solution was mixed with an ethanolic solution of 2MD or vitamin D analog as a control. The two ethanolic solutions were mixed (approx. 15 min.) with Neobee oil so that there was no more than 14.1% of ethanol in the final dosing solution. Doses were delivered in a 0.75 mL/kg dose volume.
Intravenous Formulations. Etelcalcitide was weighed and mixed with propylene glycol (up to 5 mg etelcalcitide/ml propylene glycol) for approximately 1 minute. After a clear solution was produced ([…]), the clear solution was mixed with an ethanolic solution of 2MD or vitamin D analog as a control (no more than ˜0.6% ethanol in the final solution) for approximately 1 min. Doses were delivered in a 1 mL/kg dose volume.
Sprague-Dawley rats were made vitamin D-deficient and then placed on a high containing lactose (10%) and elevated levels of calcium (2%) and phosphorus (1.25%). After hyperparathyroidism was established in the rats, animals were administered cinacalcet or etelcalcitide, 2MD or the combination of the two thrice weekly for nearly four weeks. Blood was collected 48-72 hours after the last dose was given and PTH (Immutopics Intact PTH kit) and serum calcium (Perkin Elmer) measured. […]

Data set [1] has as its system MRL/MpJ-FAS^1pr (MRL/lpr) mouse model of systemic lupus erythematosus. To be noted: calcitriol administered through the diet; cited from earlier work.

Consider `C=C1[C@H](O)CC(=C/C=C2\CCC[C@@]3(C)C2CCC3[C@@H](C)CCCC(C)(C)O)C[C@H]1O` (stereo partly drawn) [2MD, 2-methylene-19-nor-(20S)-1α,25-dihydroxyvitamin D3], for which the “serum calcium, 2MD alone” value with vitamin D-deficient rats (1 ng 2MD/kg bw) is “unaffected”.
In the case of `C[C@@H](NCCCc1cccc(C(F)(F)F)c1)c1cccc2ccccc12` [cinacalcet, (R)—N-[1-(1-naphthyl)ethyl]-3-[3-(trifluoromethyl)phenyl] propan-1-amine], the “decrease of serum calcium, cinacalcet alone” value in the data set with vitamin D-deficient rats (cinacalcet alone) is on record as 0.5 mg%.
For `C=C1/C(=C\C=C2/CCC[C@]3(C)[C@@H]([C@H](C)CCCC(C)(C)O)CC[C@@H]23)C[C@@H](O)C[C@@H]1O` [calcitriol, 1α,25-(OH)2D3], in data set [1], the hypercalcemia accompanying treatment result is “severe hypercalcemia always accompanied this treatment” and the proteinuria result is on record as “completely prevents proteinuria”.
